Results on 13 compounds are retold here after PubChem BioAssay AID192 (DTP/NCI, 2004).

The assay concerns BDF1 mice, B16 melanoma ip, median survival T/C. The experiment in a line: NCI In Vivo Anticancer Drug Screen. Data for tumor model B16 Melanoma (intraperitoneal) in B6D2F1 (BDF1) mice. The conditions noted are these: endpoint: median survival time, higher = longer survival. An outline of the steps:
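Tumor-bearing mice received test compound or vehicle. Survival or tumor size was then measured in both groups. The treated-group figure was divided by the control-group figure.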

The mark [1] stands for this setting: dose: 6.25 mg/kg/injection, schedule: Q01DX009 (ip), vehicle: saline.
[2] abbreviates: dose: 25.0 mg/kg/injection, schedule: Q01DX009 (ip), vehicle: saline.
Setting [3] is: dose: 50.0 mg/kg/injection, schedule: Q01DX009 (ip), vehicle: saline.
[4] abbreviates: dose: 100.0 mg/kg/injection, schedule: Q01DX009 (ip), vehicle: saline.
The mark [5] stands for this setting: dose: 12.5 mg/kg/injection, schedule: Q01DX009 (ip), vehicle: Klucel (hydroxypropylcellulose) (HPC).
Where [6] appears, read: dose: 25.0 mg/kg/injection, schedule: Q01DX009 (ip), vehicle: Klucel (hydroxypropylcellulose) (HPC).
Setting [7] is: dose: 50.0 mg/kg/injection, schedule: Q01DX009 (ip), vehicle: Klucel (hydroxypropylcellulose) (HPC).
Setting [8] is: dose: 50.0 mg/kg/injection, schedule: Q04DX003 (ip), vehicle: saline with Tween-80.
[9] abbreviates: dose: 100.0 mg/kg/injection, schedule: Q04DX003 (ip), vehicle: saline with Tween-80.
Setting [10] is: dose: 200.0 mg/kg/injection, schedule: Q04DX003 (ip), vehicle: saline with Tween-80.
Setting [11] is: dose: 12.5 mg/kg/injection, schedule: Q01DX009 (ip), vehicle: saline with Tween-80.
[12] abbreviates: dose: 25.0 mg/kg/injection, schedule: Q01DX009 (ip), vehicle: saline with Tween-80.
[13] abbreviates: dose: 400.0 mg/kg/injection, schedule: Q04DX003 (ip), vehicle: saline with Tween-80.

“And” between values parts separate entries of the source, which are not always exact repeats. Identical values can stand only once. Inconclusive results and toxic doses are left out.

Regarding `CN1CCN=C(c2ccccc2)c2cc(Cl)ccc21`, the T/C is 117 % of control under setting [1]; 117 % of control (dose: 12.5 mg/kg/injection, schedule: Q01DX009 (ip), vehicle: saline); 115 % of control under setting [2]; 106 % of control under setting [3]; 100 % of control under setting [4].
As for `CCOP(=O)(O)CC(=O)NC(CC(=O)O)C(=O)O` (centres undefined), the T/C is 97 % of control under setting [5]; 101 % of control under setting [6]; 92 % of control under setting [7]; 92 % of control (dose: 100.0 mg/kg/injection, schedule: Q01DX009 (ip), vehicle: Klucel (hydroxypropylcellulose) (HPC)); 97 % of control (dose: 200.0 mg/kg/injection, schedule: Q01DX009 (ip), vehicle: Klucel (hydroxypropylcellulose) (HPC)); 94 % of control (dose: 400.0 mg/kg/injection, schedule: Q01DX009 (ip), vehicle: Klucel (hydroxypropylcellulose) (HPC)).
As to `CO[C@H]1C[C@](C)(O)Cc2cc3c(c(O)c21)C(=O)c1c(O)cc2c(c1C3=O)O[C@@H]1O[C@@]2(C)[C@H](O)[C@@H](N(C)C)[C@@H]1O`, the T/C reads like this: (dose: 0.78 mg/kg/injection, schedule: Q01DX009 (ip), vehicle: other) 110 % of control; (dose: 1.56 mg/kg/injection, schedule: Q01DX009 (ip), vehicle: other) 118 % of control; (dose: 2.3 mg/kg/injection, schedule: Q01DX005 (ip), vehicle: other) 169 % of control; (dose: 2.3 mg/kg/injection, schedule: Q01DX005 (iv), vehicle: other) 97 % of control; (dose: 2.3 mg/kg/injection, schedule: Q01DX009 (ip), vehicle: other) 194 % of control; (dose: 3.12 mg/kg/injection, schedule: Q01DX009 (ip), vehicle: other) 159 % of control. The T/C (dose: 3.13 mg/kg/injection, schedule: Q01DX009 (ip), vehicle: other) was 167 % of control; the T/C (dose: 4.5 mg/kg/injection, schedule: Q01DX005 (ip), vehicle: other) is 200 % of control; the T/C (dose: 4.5 mg/kg/injection, schedule: Q01DX005 (iv), vehicle: other) was 110 % of control; the T/C (dose: 4.5 mg/kg/injection, schedule: Q01DX005 (oral), vehicle: other) is 95 % of control; the T/C (dose: 4.5 mg/kg/injection, schedule: Q01DX009 (ip), vehicle: other) was 185 % of control; the T/C (dose: 4.5 mg/kg/injection, schedule: Q01DX009 (oral), vehicle: other) was 99 % of control. The T/C was 173 % of control and 177 % of control and 183 % of control (dose: 6.25 mg/kg/injection, schedule: Q01DX009 (ip), vehicle: other); 213 % of control (dose: 9.0 mg/kg/injection, schedule: Q01DX005 (ip), vehicle: other); 112 % of control (dose: 9.0 mg/kg/injection, schedule: Q01DX005 (iv), vehicle: other); 97 % of control (dose: 9.0 mg/kg/injection, schedule: Q01DX005 (oral), vehicle: other); 272 % of control (dose: 9.0 mg/kg/injection, schedule: Q01DX009 (ip), vehicle: other); 107 % of control (dose: 9.0 mg/kg/injection, schedule: Q01DX009 (oral), vehicle: other). For the same compound, the T/C is, setting by setting: (dose: 10.8 mg/kg/injection, schedule: Q04DX003 (ip), vehicle: lactic acid) 203 % of control; (dose: 12.5 mg/kg/injection, schedule: Q01DX009 (ip), vehicle: other) 167 % of control and 191 % of control and 209 % of control; (dose: 18.0 mg/kg/injection, schedule: Q01DX001 (ip), vehicle: other) 158 % of control; (dose: 18.0 mg/kg/injection, schedule: Q01DX001 (iv), vehicle: other) 100 % of control; (dose: 18.0 mg/kg/injection, schedule: Q01DX005 (ip), vehicle: other) 236 % of control; (dose: 18.0 mg/kg/injection, schedule: Q01DX005 (oral), vehicle: other) 108 % of control. The T/C is 116 % of control (dose: 18.0 mg/kg/injection, schedule: Q01DX009 (oral), vehicle: other); 100 % of control (dose: 25.0 mg/kg/injection, schedule: Q01DX001 (ip), vehicle: water); 153 % of control (dose: 36.0 mg/kg/injection, schedule: Q01DX001 (ip), vehicle: other); 103 % of control (dose: 36.0 mg/kg/injection, schedule: Q01DX001 (oral), vehicle: other); 121 % of control (dose: 36.0 mg/kg/injection, schedule: Q01DX005 (oral), vehicle: other); 119 % of control (dose: 72.0 mg/kg/injection, schedule: Q01DX001 (oral), vehicle: other).
As to `O/N=C\c1ccc(/C=N/O)cc1`, the T/C under setting [8] was 119 % of control, the T/C under setting [9] is 119 % of control and the T/C under setting [10] is 111 % of control.
As for `O=C(Nc1ccc(C(=O)O)cc1)Oc1ccc(N(CCCl)CCCl)cc1`, the T/C was 109 % of control (dose: 3.13 mg/kg/injection, schedule: Q04DX003 (ip), vehicle: saline with Tween-80); 109 % of control (dose: 6.25 mg/kg/injection, schedule: Q04DX003 (ip), vehicle: saline with Tween-80); 165 % of control under setting [11]; 123 % of control (dose: 12.5 mg/kg/injection, schedule: Q04DX003 (ip), vehicle: saline with Tween-80); 154 % of control under setting [6]; 110 % of control under setting [12]. Besides, the T/C was 151 % of control (dose: 25.0 mg/kg/injection, schedule: Q04DX003 (ip), vehicle: saline with Tween-80); 164 % of control under setting [8]; 205 % of control under setting [9].
In the case of `CCCC1CC[N-]CC1.CCCC1CC[N-]CC1.[Cl][Pt+2][Cl]`, the T/C is, setting by setting: (dose: 6.25 mg/kg/injection, schedule: Q01DX009 (ip), vehicle: saline with Tween-80) 100 % of control; under setting [11], 110 % of control; under setting [12], 104 % of control.
`FC(F)(F)S.[Hg]`: the T/C reads like this: (dose: 1.25 mg/kg/injection, schedule: Q01DX009 (ip), vehicle: saline) 104 % of control; (dose: 2.5 mg/kg/injection, schedule: Q01DX009 (ip), vehicle: saline) 100 % of control; (dose: 5.0 mg/kg/injection, schedule: Q01DX009 (ip), vehicle: saline) 102 % of control.
For the compound `C#CCOCC(O)CCl` (centres undefined), the T/C is, setting by setting: under setting [2], 94 % of control; under setting [3], 105 % of control; (dose: 100.0 mg/kg/injection, schedule: Q01DX009 (ip), vehicle: saline with Tween-80) 95 % of control; under setting [4], 89 % of control.
Take `COc1cc2ccc3c4cc5c(cc4c[n+](C)c3c2cc1OC)OCO5`: the T/C (dose: 10.0 mg/kg/injection, schedule: Q01DX009 (ip), vehicle: Klucel (hydroxypropylcellulose) (HPC)) is 104 % of control.
As for `O=S(=O)(c1ccc(Cl)cc1)c1ccc(Cl)cc1`, the T/C is 100 % of control under setting [9], 97 % of control under setting [10] and 100 % of control under setting [13].
On to `Nc1ccn(C2OC(CO)C(O)C2O)c(=O)n1` (centres undefined), for which the T/C was 120 % of control under setting [1]; 98 % of control under setting [2]; 71 % of control (dose: 80.0 mg/kg/injection, schedule: Q01DX009 (ip), vehicle: saline); 97 % of control under setting [4]; 100 % of control under setting [9]; 94 % of control (dose: 200.0 mg/kg/injection, schedule: Q01DX009 (ip), vehicle: saline). Besides, the T/C was 92 % of control under setting [10]; 100 % of control (dose: 250.0 mg/kg/injection, schedule: Q04DX009 (ip), vehicle: saline); 92 % of control under setting [13].
`CC(C)C(O)(C(=O)OCC1=CC[N+]2(C)CCC(O)C12)C(C)O` (centres undefined): the T/C runs as follows: (dose: 12.5 mg/kg/injection, schedule: Q01DX009 (ip), vehicle: water) 105 % of control; (dose: 25.0 mg/kg/injection, schedule: Q01DX009 (ip), vehicle: water) 107 % of control; (dose: 50.0 mg/kg/injection, schedule: Q01DX009 (ip), vehicle: water) 113 % of control; (dose: 100.0 mg/kg/injection, schedule: Q01DX009 (ip), vehicle: water) 109 % of control; (dose: 200.0 mg/kg/injection, schedule: Q01DX009 (ip), vehicle: water) 108 % of control.
`CC(c1c[nH]c2ccccc12)N1CCCCC1` (centres undefined): the T/C reads like this: under setting [5], 97 % of control; under setting [6], 95 % of control; under setting [7], 98 % of control.
